Experimental data as given in patent publication US20240383898A1, “PYRIDO RING COMPOUND, PREPARATION METHOD THEREFOR, INTERMEDIATE, COMPOSITION, AND APPLICATION” (YIYOU BIOTECH (SHANGHAI) CO., LTD, priority 2021, published 2024).

Experiments:
JAK2 = biological target: T1, JAK2 (Homo sapiens, UniProt O60674); experiment: In vitro activity test of JAK2 kinase (Caliper EZ Reader conversion assay); type: biochemical; details: enzyme activity, 10 concentrations from 1000 nM, 3-fold dilution
T1 construct: purchased Carna 08-045
Method: (§1) In Vitro Activity Test of JAK1 and JAK2 Kinases
(§2) • Centrifuge (manufacturer: Eppendorf, model: 5430) • ELISA Instrument (Manufacturer: Perkin Elmer, Model: Caliper EZ Reader 1I) • Echo 550 (Manufacturer: Labcyte, Model: Echo 550)
(§3) (1) Prepare 1 Kinase buffer.
(§4) (2) Compound concentration gradient preparation: The test compound was tested at 1000 nM, 3-fold dilution, 10 concentrations, two-well assay, and configured to a 100-fold final concentration in a 384-well plate. 250 nl of the test compound was then transferred to the 384 reaction plate using Echo550. 250 nl of 100% DMSO was added to each of the negative and positive control wells.
(§5) (3) Prepare 2.5 times the final concentration of kinase solution with 1×Kinase buffer.
(§6) (4) Add 10 μL of 2.5 times the final concentration of kinase solution to the compound wells and 10 μL of 1×Kinase buffer to the negative control wells.
(§7) (5) Centrifuge at 1000 rpm for 30 seconds, mix well with shaking, and incubate at room temperature for 10 minutes.
(§8) (6) Prepare a 25/15-fold final concentration of mixture of ATP and Kinase substrate with 1×Kinase buffer.
(§9) (7) Add 15 μL of a mixture of 25/15 times the final concentration of ATP and substrate to start the reaction.
(§10) (8) Centrifuge the 384-well plate at 1000 rpm for 30 seconds, mix well with shaking, and incubate at room temperature for an appropriate amount of time.
(§11) (9) Stop the kinase reaction by adding 30 μL of termination solution, centrifuge at 1000 rpm for 30 seconds, and mix well with shaking.
(§12) (10) Read the conversion rate with Caliper EZ Reader.
(§13) where: Conversion %_sample is the conversion rate reading of the sample-, Conversion %_min: the average value of the negative control wells, representing the conversion reading of the wells without enzyme activity: Conversion %-max: the average value of the positive control wells, representing the conversion reading of the wells without compound inhibition.
(§14) The log value of concentration was used as the X-axis and the percentage inhibition as the Y-axis, and the function of the analytical software GraphPad Prism 5; log(inhibitor) vs. response -Variable slope, was used to lit dose-effect curves to obtain the IC50) values of each compound on enzyme activity.
(§15) The formula is Y=Bottom+(Top-Bottom)/(1+10^((LogIC50-X)*HillSlope))
(§16) The 1C50 data are specified in Table 1.

JAK1 = biological target: T2, JAK1 (Homo sapiens, UniProt P23458); experiment: In vitro activity test of JAK1 kinase (Caliper EZ Reader conversion assay); type: biochemical; details: enzyme activity, 10 concentrations from 1000 nM, 3-fold dilution
T2 construct: purchased Carna 08-114
Method: as §1, §2, §3, §4, §5, §6, §7, §8, §9, §10, §11, §12, §13, §14, §15, §16

T2 sequence (P23458 whole entry, species assumed): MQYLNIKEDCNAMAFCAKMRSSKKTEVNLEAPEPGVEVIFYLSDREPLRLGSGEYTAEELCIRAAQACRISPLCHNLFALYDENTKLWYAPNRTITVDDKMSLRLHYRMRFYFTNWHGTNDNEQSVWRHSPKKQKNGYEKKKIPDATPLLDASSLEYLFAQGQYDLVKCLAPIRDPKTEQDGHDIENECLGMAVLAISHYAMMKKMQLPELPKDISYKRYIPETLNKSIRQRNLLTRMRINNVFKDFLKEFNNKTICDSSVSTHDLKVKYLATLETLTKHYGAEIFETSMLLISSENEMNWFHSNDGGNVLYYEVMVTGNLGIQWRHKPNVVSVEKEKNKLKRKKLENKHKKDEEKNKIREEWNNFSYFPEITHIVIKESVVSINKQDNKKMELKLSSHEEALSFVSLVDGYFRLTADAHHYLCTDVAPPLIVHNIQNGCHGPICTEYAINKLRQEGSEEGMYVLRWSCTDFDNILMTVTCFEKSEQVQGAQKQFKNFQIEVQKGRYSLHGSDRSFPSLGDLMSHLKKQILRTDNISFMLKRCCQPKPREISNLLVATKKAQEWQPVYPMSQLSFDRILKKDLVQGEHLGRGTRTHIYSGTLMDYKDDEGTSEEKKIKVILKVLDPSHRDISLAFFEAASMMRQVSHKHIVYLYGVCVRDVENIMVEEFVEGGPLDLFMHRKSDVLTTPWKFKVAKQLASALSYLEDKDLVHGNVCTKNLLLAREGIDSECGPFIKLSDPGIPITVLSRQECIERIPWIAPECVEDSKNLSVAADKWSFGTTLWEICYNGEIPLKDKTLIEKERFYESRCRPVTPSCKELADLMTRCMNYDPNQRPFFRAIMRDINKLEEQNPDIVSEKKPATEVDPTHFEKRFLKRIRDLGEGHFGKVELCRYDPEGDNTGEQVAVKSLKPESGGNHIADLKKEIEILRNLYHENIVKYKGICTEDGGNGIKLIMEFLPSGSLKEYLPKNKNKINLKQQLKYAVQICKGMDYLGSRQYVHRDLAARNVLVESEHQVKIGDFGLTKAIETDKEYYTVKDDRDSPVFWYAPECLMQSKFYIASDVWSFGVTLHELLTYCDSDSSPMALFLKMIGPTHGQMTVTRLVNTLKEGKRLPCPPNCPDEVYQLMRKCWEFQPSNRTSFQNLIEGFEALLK
T1 sequence (O60674 whole entry, species assumed): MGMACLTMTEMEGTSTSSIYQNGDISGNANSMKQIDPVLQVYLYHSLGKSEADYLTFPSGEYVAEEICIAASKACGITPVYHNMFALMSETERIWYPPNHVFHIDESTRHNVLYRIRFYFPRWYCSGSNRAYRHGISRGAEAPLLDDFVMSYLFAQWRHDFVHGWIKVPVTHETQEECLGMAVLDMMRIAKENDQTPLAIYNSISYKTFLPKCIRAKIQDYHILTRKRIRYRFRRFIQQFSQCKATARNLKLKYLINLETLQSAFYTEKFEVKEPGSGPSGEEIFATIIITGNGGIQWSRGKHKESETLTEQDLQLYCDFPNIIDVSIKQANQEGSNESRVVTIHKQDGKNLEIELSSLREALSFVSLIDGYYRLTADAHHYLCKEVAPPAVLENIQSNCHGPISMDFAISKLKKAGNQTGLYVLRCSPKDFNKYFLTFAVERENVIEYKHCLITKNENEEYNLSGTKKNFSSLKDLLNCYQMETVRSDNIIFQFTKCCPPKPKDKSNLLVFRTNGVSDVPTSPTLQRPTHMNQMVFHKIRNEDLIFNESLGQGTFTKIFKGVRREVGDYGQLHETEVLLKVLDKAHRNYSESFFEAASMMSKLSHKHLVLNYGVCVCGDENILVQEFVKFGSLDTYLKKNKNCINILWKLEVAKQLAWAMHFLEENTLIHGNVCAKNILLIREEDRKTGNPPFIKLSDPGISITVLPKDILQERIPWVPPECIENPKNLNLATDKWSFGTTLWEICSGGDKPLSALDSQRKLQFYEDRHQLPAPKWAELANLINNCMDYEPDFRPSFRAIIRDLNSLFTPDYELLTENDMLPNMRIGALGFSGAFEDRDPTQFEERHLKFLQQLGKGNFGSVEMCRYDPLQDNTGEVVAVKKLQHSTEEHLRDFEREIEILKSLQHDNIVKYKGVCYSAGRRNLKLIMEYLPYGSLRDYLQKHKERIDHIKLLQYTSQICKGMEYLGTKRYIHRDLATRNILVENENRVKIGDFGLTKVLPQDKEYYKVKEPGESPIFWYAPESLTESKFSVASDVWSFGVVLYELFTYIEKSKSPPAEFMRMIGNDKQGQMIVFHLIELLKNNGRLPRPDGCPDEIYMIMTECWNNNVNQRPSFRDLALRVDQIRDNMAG

Row | SMILES | IC50 (JAK2) | IC50 (JAK1)
1 | C[C@@H](O)c1nc2cnc3[nH]ccc3c2n1C1CCN(C(=O)NCC(F)(F)F)C1 (stereo in doubt) [LXS20, (R)-3-(2-((R)-1-Hydroxyethyl)imidazo[4,5-d]pyrrolo[2,3-b]pyridin-1(6H)-yl)-N-(2,2,2-trifluoroethyl)pyrrolidine-1-carboxamide] | 100 to 1000 nM | 100 to 1000 nM
2 | CCCS(=O)(=O)N1CCC(n2c([C@@H](C)O)nc3cnc4[nH]ccc4c32)C1 (stereo in doubt) [LXS21, (R)-1-(1-((R)-1-(Propylsulfonyl)pyrrolidin-3-yl)-1,6-dihydroimidazo[4,5-d]pyrrolo[2,3-b]pyridin-2-yl)ethanol] | 100 to 1000 nM | 100 to 1000 nM
3 | O=C(NCC(F)(F)F)N1CCC(n2c(-c3ccc(CO)o3)nc3cnc4[nH]ccc4c32)C1 (stereo in doubt) [LXS23, (R)-3-(2-(5-(hydroxymethyl)furan-2-yl)imidazo[4,5-d]pyrrolo[2,3-b]pyridin-1(6H)-yl)-N-(2,2,2-trifluoroethyl)pyrrolidine-1-carboxamide] | 100 to 1000 nM | 100 to 1000 nM
4 | O=C(NCC(F)(F)F)N1CCC(n2c(-c3ncc[nH]3)nc3cnc4[nH]ccc4c32)C1 (stereo in doubt) [LXS24, (R)-3-(2-(1H-imidazol-2-yl)imidazo[4,5-d]pyrrolo[2,3-b]pyridin-1(6H)-yl)-N-(2,2,2-trifluoroethyl)pyrrolidine-1-carboxamide] | 100 to 1000 nM | 100 to 1000 nM
5 | C=CC(=O)N1CCC(n2c(-c3ncc[nH]3)nc3cnc4[nH]ccc4c32)C1 (stereo in doubt) [LXS25, (R)-1-(3-(2-(1H-imidazol-2-yl)imidazo[4,5-d]pyrrolo[2,3-b]pyridin-1(6H)-yl)pyrrolidin-1-yl)prop-2-en-1-one] | 100 to 1000 nM | 100 to 1000 nM
6 | N#C[C@H]1CC[C@H](n2c(-c3cnc(N)s3)nc3cnc4[nH]ccc4c32)CC1 (stereo in doubt) [LXS27, trans-4-(2-(2-Aminothiazol-5-yl)imidazo[4,5-d]pyrrolo[2,3-b]pyridin-1(6H)-yl)cyclohexanecarbonitrile] | 10 to 100 nM | 10 to 100 nM
7 | Cc1ccc(-c2nc3cnc4[nH]ccc4c3n2C2CCC(C#N)CC2)o1 (stereo in doubt) [LXS29, trans-4-(2-(2-Methylfuran-5-yl)imidazo[4,5-d]pyrrolo[2,3-b]pyridin-1(6H)-yl)cyclohexanecarbonitrile] | 10 to 100 nM | 10 to 100 nM
8 | N#C[C@H]1CC[C@H](n2c(-c3cccc(O)c3)nc3cnc4[nH]ccc4c32)CC1 (stereo in doubt) [LXS35, trans-4-(2-(3-Hydroxyphenyl)imidazo[4,5-d]pyrrolo[2,3-b]pyridin-1(6H)-yl)cyclohexanecarbonitrile] | < 10 nM | 10 to 100 nM
9 | N#C[C@H]1CC[C@H](n2c(-c3ccc(C(F)(F)F)cc3)nc3cnc4[nH]ccc4c32)CC1 (stereo in doubt) [LXS37, trans-4-(2-(4-(Trifluoromethyl)phenyl)imidazo[4,5-d]pyrrolo[2,3-b]pyridin-1(6H)-yl)cyclohexanecarbonitrile] | 100 to 1000 nM | 100 to 1000 nM
10 | N#C[C@H]1CC[C@H](n2c(-c3ccccc3F)nc3cnc4[nH]ccc4c32)CC1 (stereo in doubt) [LXS40, trans-4-(2-(2-Fluorophenyl)imidazo[4,5-d]pyrrolo[2,3-b]pyridin-1(6H)-yl)cyclohexanecarbonitrile] | 10 to 100 nM | 10 to 100 nM
11 | COc1ccc(-c2nc3cnc4[nH]ccc4c3n2C2CCC(C#N)CC2)c(O)c1 (stereo in doubt) [LXS41, trans-4-(2-(2-Hydroxy-4-methoxyphenyl)imidazo[4,5-d]pyrrolo[2,3-b]pyridin-1(6H)-yl)cyclohexanecarbonitrile] | 100 to 1000 nM | 100 to 1000 nM
12 | CS(=O)(=O)c1ccc(C2Nc3cnc4[nH]ccc4c3N2C2CCC(C#N)CC2)cc1 (stereo in doubt) [LXS44, trans-4-(2-(4-(Methylsulfonyl)phenyl)-2,3-dihydroimidazo[4,5-d]pyrrolo[2,3-b]pyridin-1(6H)-yl)cyclohexanecarbonitrile] | 10 to 100 nM | 10 to 100 nM
13 | C[C@@H](O)c1nc2cnc3[nH]ccc3c2n1C1CCN(C(=O)OC(C)(C)C)C1 (stereo partly drawn) [LXS01, tert-butyl 3-(2-((R)-1-hydroxyethyl)imidazo[4,5-d]pyrrolo[2,3-b]pyridin-1(6H)-yl)pyrrolidine-1-carboxylate] | 100 to 1000 nM | 100 to 1000 nM
14 | C[C@@H](O)c1nc2cnc3[nH]ccc3c2n1C1CCN(C(=O)c2ccc(C#N)cc2)C1 (stereo partly drawn) [LXS02, 4-(3-(2-((R)-1-hydroxyethyl)imidazo[4,5-d]pyrrolo[2,3-b]pyridin-1(6H)-yl)pyrrolidin-1-carbonyl)benzonitrile] | 100 to 1000 nM | 100 to 1000 nM
15 | C[C@@H](O)c1nc2cnc3[nH]ccc3c2n1C1CCN(C(=O)c2ccc(F)cc2)C1 (stereo partly drawn) [LXS03, (4-Fluorophenyl)(3-(2-((R)-1-Hydroxyethyl)imidazo[4,5-d]pyrrolo[2,3-b]pyridin-1(6H)-yl)pyrrolidin-1-yl)methanone] | 100 to 1000 nM | 100 to 1000 nM
16 | CCCS(=O)(=O)N1CC(CC#N)(n2cc(-n3c(-c4ccc(CO)o4)nc4cnc5[nH]ccc5c43)cn2)C1 [LXS14, 2-(1-(propylsulfonyl)-3-(4-(2-(5-(hydroxymethyl)furan-2-yl)imidazo[4,5-d]pyrrolo[2,3-b]pyridin-1(6H)-yl)-1H-pyrazol-1-yl)azetidin-3-yl)acetonitrile] |  | 100 to 1000 nM
17 | Cc1ccc(-c2nc3cnc4[nH]ccc4c3n2-c2cnn(CCC#N)c2)s1 [LXS84, 3-(4-(2-(5-Methylthiophen-2-yl)imidazo[4,5-d]pyrrolo[2,3-b]pyridin-1(6H)-yl)-1H-pyrazol-1-yl)propanenitrile] |  | 10 to 100 nM

Further lines, results first:

Row | IC50 (JAK2) | IC50 (JAK1) | SMILES
18 | 10 to 100 nM | 10 to 100 nM | N#C[C@H]1CC[C@H](n2c(-c3ccc(CO)o3)nc3cnc4[nH]ccc4c32)CC1 (stereo in doubt) [LXS22, trans-4-(2-(5-(hydroxymethyl)furan-2-yl)imidazo[4,5-d]pyrrolo[2,3-b]pyridin-1(6H)-yl)cyclohexanecarbonitrile]
19 | 10 to 100 nM | 10 to 100 nM | Cc1ncc(-c2nc3cnc4[nH]ccc4c3n2C2CCC(C#N)CC2)s1 (stereo in doubt) [LXS26, trans-4-(2-(2-Methylthiazol-5-yl)imidazo[4,5-d]pyrrolo[2,3-b]pyridin-1(6H)-yl)cyclohexanecarbonitrile]
20 | 10 to 100 nM | 10 to 100 nM | Cc1ccc(-c2nc3cnc4[nH]ccc4c3n2C2CCC(C#N)CC2)s1 (stereo in doubt) [LXS28, trans-4-(2-(2-Methylthiophen-5-yl)imidazo[4,5-d]pyrrolo[2,3-b]pyridin-1(6H)-yl)cyclohexanecarbonitrile]
21 | 10 to 100 nM | 10 to 100 nM | N#C[C@H]1CC[C@H](n2c(-c3ccc(O)cc3O)nc3cnc4[nH]ccc4c32)CC1 (stereo in doubt) [LXS36, trans-4-(2-(2,4-Dihydroxyphenyl)imidazo[4,5-d]pyrrolo[2,3-b]pyridin-1(6H)-yl)cyclohexanecarbonitrile]
22 | 10 to 100 nM | 10 to 100 nM | N#C[C@H]1CC[C@H](n2c(-c3ccccc3O)nc3cnc4[nH]ccc4c32)CC1 (stereo in doubt) [LXS38, trans-4-(2-(2-Hydroxyphenyl)imidazo[4,5-d]pyrrolo[2,3-b]pyridin-1(6H)-yl)cyclohexanecarbonitrile]
23 | 100 to 1000 nM | 10 to 100 nM | N#C[C@H]1CC[C@H](n2c(-c3ccc(O)cc3F)nc3cnc4[nH]ccc4c32)CC1 (stereo in doubt) [LXS39, trans-4-(2-(2-Fluoro-4-hydroxyphenyl)imidazo[4,5-d]pyrrolo[2,3-b]pyridin-1(6H)-yl)cyclohexanecarbonitrile]
24 | 100 to 1000 nM | 100 to 1000 nM | CSc1ccc(-c2nc3cnc4[nH]ccc4c3n2C2CCC(C#N)CC2)cc1 (stereo in doubt) [LXS42, trans-4-(2-(4-(Methylthio)phenyl)imidazo[4,5-d]pyrrolo[2,3-b]pyridin-1(6H)-yl)cyclohexanecarbonitrile]
25 | 100 to 1000 nM | 10 to 100 nM | N#C[C@H]1CC[C@H](n2c(-c3ccc(F)cc3)nc3cnc4[nH]ccc4c32)CC1 (stereo in doubt) [LXS43, trans-4-(2-(4-Fluorophenyl)imidazo[4,5-d]pyrrolo[2,3-b]pyridin-1(6H)-yl)cyclohexanecarbonitrile]
26 | 100 to 1000 nM | 10 to 100 nM | CCS(=O)(=O)N1CCC(n2c([C@@H](C)O)nc3cnc4[nH]ccc4c32)C1 (stereo partly drawn) [LXS04, (1R)-1-(1-(1-(ethylsulfonyl)pyrrolidin-3-yl)-1,6-dihydroimidazo[4,5-d]pyrrolo[2,3-b]pyridin-2-yl)ethan-1-ol]
